Read-outs that look alike come from different tables or passages of the source.
How the values were obtained:
[1] = system: NCI-60 human cancer cell lines; experiment: NCI-60 anticancer drug screen and COMPARE analysis; format: cell-based; details: for over 90% of the tested NCI-60 cell lines; five concentrations 10^−4 to 10^−8 M
recombinant human HDAC6 = biological target: T1, recombinant human HDAC6 (Homo sapiens, UniProt Q9UBN7); experiment: biochemical; format: biochemical; details: for potency towards HDAC6, times less than to HDAC1–3: reduced form
T1 sequence (Q9UBN7 1-1215): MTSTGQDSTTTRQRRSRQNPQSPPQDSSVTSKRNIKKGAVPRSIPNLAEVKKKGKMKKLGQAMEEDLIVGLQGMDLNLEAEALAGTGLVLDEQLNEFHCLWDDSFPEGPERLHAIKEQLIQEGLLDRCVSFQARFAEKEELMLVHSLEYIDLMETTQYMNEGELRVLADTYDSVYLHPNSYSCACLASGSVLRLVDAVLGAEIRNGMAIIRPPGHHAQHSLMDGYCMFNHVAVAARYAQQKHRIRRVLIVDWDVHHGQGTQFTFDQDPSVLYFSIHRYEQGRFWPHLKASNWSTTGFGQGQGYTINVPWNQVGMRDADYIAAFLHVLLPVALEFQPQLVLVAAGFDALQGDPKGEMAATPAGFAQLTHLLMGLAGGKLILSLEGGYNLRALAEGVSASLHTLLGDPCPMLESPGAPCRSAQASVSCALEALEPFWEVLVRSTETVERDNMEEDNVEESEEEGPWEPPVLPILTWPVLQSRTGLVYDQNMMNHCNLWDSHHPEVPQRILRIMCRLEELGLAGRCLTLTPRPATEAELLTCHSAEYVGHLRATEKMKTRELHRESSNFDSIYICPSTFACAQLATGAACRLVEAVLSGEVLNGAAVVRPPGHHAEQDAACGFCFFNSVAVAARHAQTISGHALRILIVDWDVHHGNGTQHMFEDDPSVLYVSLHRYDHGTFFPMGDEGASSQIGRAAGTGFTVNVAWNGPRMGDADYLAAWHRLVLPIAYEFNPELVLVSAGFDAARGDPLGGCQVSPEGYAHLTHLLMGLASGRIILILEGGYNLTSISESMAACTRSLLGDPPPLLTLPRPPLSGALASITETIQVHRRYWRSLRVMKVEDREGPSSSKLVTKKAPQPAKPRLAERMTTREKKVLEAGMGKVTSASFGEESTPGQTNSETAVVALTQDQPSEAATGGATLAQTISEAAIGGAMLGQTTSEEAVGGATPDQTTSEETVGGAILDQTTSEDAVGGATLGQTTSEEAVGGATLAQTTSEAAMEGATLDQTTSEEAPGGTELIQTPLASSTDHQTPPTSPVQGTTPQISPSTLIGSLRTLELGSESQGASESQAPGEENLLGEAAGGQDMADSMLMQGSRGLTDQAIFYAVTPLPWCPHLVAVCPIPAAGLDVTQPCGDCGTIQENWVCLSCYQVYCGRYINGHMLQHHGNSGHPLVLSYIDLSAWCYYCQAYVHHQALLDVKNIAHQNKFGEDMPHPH

recombinant human HDAC1 = recombinant human HDAC1 (Homo sapiens, UniProt Q13547); experiment: Two-step fluorogenic HDAC inhibition assay, HDAC1; format: biochemical; details: for times less active against HDAC1 than against HDAC3/N-CoR2: natural/oxidized prodrug form, range given for HDAC1 and HDAC2 together
Sequence of recombinant human HDAC1 (Q13547 whole entry): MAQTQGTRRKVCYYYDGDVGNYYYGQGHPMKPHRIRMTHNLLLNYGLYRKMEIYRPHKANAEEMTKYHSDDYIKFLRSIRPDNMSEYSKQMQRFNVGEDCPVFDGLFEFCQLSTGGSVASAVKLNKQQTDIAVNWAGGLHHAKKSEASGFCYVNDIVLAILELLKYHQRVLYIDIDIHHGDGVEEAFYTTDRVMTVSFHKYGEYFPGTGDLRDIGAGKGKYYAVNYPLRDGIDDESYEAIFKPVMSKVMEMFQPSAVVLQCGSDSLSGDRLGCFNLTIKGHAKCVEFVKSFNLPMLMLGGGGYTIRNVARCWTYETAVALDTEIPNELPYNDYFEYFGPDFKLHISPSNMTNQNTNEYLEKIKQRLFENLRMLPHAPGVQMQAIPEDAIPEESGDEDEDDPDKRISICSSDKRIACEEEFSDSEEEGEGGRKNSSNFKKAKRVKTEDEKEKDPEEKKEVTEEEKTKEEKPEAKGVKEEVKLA

recombinant human HDAC2 = recombinant human HDAC2 (Homo sapiens, UniProt Q92769); experiment: Two-step fluorogenic HDAC inhibition assay, HDAC2; format: biochemical; details: for times less active against HDAC2 than against HDAC3/N-CoR2: natural/oxidized prodrug form, range given for HDAC1 and HDAC2 together
Sequence of recombinant human HDAC2 (Q92769 whole entry): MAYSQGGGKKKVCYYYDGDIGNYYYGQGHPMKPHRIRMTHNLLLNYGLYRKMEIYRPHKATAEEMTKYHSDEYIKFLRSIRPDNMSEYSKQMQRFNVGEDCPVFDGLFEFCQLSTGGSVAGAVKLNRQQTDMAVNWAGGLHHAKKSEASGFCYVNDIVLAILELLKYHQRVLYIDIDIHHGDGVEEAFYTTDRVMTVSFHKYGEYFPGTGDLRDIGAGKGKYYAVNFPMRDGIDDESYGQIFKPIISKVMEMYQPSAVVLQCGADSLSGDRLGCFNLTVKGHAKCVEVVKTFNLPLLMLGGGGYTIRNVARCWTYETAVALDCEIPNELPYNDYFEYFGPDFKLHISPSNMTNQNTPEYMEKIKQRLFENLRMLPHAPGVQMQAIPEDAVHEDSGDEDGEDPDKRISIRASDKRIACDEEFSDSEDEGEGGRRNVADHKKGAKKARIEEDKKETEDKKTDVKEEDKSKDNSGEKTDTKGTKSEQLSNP

recombinant human HDAC8 = biological target: T2, recombinant human HDAC8 (Homo sapiens, UniProt Q9BY41); experiment: biochemical; format: biochemical
T2 sequence (Q9BY41 1-377): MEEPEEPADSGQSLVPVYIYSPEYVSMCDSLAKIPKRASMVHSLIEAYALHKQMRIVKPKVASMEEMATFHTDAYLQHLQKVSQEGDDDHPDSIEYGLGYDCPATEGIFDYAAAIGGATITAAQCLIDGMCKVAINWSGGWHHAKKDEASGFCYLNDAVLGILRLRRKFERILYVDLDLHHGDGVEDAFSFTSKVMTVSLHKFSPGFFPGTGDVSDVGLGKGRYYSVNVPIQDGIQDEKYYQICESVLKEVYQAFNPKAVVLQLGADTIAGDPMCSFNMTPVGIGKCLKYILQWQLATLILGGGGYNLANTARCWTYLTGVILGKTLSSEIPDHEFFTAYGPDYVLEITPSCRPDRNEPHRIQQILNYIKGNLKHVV

recombinant human HDAC4 = recombinant human HDAC4 (Homo sapiens, UniProt P56524); experiment: biochemical; format: biochemical
Sequence of recombinant human HDAC4 (P56524 whole entry): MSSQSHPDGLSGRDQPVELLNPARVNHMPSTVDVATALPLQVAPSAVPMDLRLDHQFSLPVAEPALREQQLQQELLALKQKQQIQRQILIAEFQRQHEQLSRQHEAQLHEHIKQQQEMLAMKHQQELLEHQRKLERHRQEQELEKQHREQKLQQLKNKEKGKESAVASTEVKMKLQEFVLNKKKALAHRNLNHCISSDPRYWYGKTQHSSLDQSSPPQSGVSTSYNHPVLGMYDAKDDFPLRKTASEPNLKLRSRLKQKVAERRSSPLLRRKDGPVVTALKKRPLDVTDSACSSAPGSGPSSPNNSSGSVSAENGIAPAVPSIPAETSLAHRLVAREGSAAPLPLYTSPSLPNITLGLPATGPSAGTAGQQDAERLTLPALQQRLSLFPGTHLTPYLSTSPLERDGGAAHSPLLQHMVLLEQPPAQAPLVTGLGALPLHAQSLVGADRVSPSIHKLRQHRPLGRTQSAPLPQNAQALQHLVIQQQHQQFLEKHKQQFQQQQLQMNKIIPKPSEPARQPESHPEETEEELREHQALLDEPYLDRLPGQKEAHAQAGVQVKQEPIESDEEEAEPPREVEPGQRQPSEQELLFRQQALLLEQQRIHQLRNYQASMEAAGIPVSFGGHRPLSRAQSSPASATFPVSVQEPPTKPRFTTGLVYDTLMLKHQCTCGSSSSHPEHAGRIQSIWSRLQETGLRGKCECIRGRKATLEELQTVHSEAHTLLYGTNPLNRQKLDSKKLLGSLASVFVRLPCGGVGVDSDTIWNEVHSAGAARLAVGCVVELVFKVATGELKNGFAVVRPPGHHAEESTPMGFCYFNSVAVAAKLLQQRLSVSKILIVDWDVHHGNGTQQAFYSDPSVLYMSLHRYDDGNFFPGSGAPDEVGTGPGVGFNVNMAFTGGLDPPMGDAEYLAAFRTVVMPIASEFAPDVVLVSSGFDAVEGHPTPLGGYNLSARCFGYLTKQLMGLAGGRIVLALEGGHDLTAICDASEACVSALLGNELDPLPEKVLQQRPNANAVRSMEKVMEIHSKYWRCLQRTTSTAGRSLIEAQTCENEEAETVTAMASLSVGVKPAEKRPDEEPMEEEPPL

recombinant human HDAC7 = biological target: T3, recombinant human HDAC7 (Homo sapiens, UniProt Q8WUI4); experiment: biochemical
T3 sequence (Q8WUI4 1-952): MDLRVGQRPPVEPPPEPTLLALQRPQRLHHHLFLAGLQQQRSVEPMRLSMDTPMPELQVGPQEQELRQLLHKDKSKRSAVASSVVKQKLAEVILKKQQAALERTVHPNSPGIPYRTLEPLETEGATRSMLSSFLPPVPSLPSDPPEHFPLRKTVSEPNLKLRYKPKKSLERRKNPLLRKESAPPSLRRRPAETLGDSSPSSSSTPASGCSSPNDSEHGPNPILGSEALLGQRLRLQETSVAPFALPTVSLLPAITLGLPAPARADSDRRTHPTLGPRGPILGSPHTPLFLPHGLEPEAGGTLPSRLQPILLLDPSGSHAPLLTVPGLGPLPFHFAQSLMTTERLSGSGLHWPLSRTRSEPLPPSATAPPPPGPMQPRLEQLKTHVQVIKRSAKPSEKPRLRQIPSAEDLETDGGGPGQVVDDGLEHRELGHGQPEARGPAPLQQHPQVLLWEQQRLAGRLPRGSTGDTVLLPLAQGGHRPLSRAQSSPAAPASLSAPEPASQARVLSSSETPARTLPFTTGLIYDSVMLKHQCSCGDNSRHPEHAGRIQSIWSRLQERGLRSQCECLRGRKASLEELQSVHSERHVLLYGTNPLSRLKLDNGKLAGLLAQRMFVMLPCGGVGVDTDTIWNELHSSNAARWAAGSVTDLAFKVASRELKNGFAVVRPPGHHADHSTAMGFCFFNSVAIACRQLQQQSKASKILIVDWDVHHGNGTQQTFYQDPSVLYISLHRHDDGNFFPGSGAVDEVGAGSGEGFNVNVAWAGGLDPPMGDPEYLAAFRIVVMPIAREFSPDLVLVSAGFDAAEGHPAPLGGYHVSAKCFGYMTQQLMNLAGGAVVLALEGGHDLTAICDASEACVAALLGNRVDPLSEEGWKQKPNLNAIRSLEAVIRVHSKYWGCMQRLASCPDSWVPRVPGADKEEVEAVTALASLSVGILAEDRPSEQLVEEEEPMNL

[2] = biological target: HDAC3 (in complex with N-CoR2) (Homo sapiens, UniProt O15379); experiment: biochemical
Sequence of HDAC3 (in complex with N-CoR2) (O15379 whole entry): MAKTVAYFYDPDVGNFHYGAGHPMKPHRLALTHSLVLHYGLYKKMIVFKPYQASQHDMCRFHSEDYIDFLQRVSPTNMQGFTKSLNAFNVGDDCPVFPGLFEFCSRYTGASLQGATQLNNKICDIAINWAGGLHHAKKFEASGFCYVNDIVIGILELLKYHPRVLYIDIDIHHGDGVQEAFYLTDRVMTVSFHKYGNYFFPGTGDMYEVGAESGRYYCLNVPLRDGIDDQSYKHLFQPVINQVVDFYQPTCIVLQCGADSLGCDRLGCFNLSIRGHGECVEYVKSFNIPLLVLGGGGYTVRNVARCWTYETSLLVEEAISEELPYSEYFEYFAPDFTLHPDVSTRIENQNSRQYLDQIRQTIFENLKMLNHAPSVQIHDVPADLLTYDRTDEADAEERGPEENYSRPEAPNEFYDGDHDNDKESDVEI
Sequence of HDAC3 (in complex with N-CoR2) (Q9Y618 395-489 partner limits assumed): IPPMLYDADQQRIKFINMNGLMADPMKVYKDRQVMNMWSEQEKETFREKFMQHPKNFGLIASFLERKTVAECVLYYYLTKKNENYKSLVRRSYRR

recombinant human HDAC9 = recombinant human HDAC9 (Homo sapiens, UniProt Q9UKV0); experiment: biochemical
Sequence of recombinant human HDAC9 (Q9UKV0 whole entry): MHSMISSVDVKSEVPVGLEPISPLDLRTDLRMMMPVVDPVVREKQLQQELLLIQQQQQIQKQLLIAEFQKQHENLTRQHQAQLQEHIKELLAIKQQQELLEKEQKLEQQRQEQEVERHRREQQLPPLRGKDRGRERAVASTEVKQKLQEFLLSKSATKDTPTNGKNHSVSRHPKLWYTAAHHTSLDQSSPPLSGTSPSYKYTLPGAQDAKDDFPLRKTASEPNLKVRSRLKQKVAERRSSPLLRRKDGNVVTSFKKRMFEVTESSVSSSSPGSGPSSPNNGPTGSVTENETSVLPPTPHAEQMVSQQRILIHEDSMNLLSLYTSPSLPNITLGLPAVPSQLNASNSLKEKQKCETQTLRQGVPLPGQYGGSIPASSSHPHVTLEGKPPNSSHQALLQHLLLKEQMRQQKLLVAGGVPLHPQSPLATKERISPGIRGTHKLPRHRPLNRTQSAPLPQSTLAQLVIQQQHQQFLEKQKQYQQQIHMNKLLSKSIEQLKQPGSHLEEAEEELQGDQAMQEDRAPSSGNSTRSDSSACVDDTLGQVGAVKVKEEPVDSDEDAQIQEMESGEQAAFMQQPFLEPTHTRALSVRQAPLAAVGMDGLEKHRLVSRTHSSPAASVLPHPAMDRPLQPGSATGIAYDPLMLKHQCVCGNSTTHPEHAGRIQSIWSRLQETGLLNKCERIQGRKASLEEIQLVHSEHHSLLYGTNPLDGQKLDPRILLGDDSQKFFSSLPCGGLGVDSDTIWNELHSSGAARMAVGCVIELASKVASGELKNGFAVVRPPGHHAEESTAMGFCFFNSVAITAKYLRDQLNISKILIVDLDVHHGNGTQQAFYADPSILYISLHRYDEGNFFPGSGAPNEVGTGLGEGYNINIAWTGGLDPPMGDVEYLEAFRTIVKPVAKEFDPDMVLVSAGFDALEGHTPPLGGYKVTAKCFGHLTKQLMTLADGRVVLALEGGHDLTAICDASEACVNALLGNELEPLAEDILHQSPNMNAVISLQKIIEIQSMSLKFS

Row | SMILES | GI50 (growth inhibition) [1] | potency towards HDAC6, times less than to HDAC1–3 (recombinant human HDAC6) | times less active against HDAC1 than against HDAC3/N-CoR2 (recombinant human HDAC1) | times less active against HDAC2 than against HDAC3/N-CoR2 (recombinant human HDAC2) | inhibition of HDAC8, times weaker than the inhibition of HDAC1–3 (recombinant human HDAC8; reduced form) | IC50 (recombinant human HDAC4) | IC50 (recombinant human HDAC7) | IC50 (recombinant human HDAC1) | IC50 (recombinant human HDAC6) | fold less potent against HDAC4 than 2* (recombinant human HDAC4) | IC50 (recombinant human HDAC2) | IC50 [2] | IC50 (recombinant human HDAC8) | fold less potent against HDAC8 than 2* (recombinant human HDAC8) | inhibition of HDAC8, times weaker than the inhibition of HDAC1–3 (recombinant human HDAC8) | IC50 (recombinant human HDAC9)
1 | CCCC[C@H]1NC(=O)C[C@H]2/C=C/CCSSC[C@@H](NC1=O)C(=O)N[C@H]([C@@H](C)CC)[C@@H](O)CC(=O)O2 [Compound 7, thailandepsin B] | low nanomolar concentrations | 30–100 times | 80–450 times | 80–450 times | 80–350 times | – | – | – | – | – | – | – | – | – | – | –
2 | C/C=C1\NC(=O)[C@H]2CSSCC/C=C/[C@H](CC(=O)N[C@H](C(C)C)C(=O)N2)OC(=O)[C@H](C(C)C)NC1=O [Compound 2, FK228, reference compound] | – | 30–100 times | 80–450 times | 80–450 times | – | 470 nM | 3200 nM | 5.3 nM | – | – | – | – | – | – | – | –
3 | CC[C@H](C)[C@H]1NC(=O)[C@H]2CSSCC/C=C/[C@H](CC(=O)N[C@H](CCSC)C(=O)N2)OC(=O)C[C@@H]1O [Compound 6, thailandepsin A] | low nanomolar concentrations | 30–100 times | 80–450 times | 80–450 times | – | 42000 nM | 11000 nM | 14 nM | 380 nM | 40–90 fold | 3.5 nM | 4.8 nM | 1200 nM | 40–90 fold | 80–350 times | 12000 nM

Source: publication PMC3204160 (Journal of natural products, 2011)
